Experimental data: patent US9302999B2, “Substituted triazoles as herbicides” (E. I. DU PONT DE NEMOURS AND COMPANY, priority 2012, dated 2016)

Columns and labels:
Format in all cases: in vivo
[1] = tested on: morningglory (Ipomoea spp.); test: Test A pre-/postemergence: morningglory; conditions: for Morningglory plant response rating: Postemergence; for Plant response rating, Morningglory: Preemergence
In short: (§1)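 Plants in loam–sand blend were treated with test chemicals in non-phytotoxic solvent with surfactant, either as preemergence directed soil spray or postemergence at 2–10 cm, one- to two-leaf stage. After about ten days in greenhouse, injury was rated visually against untreated controls on a 0–100 scale (100 = complete control).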

[2] = tested on: ducksalad (Heteranthera limosa); test: Test C flooded paddy test: ducksalad; conditions: scale 0 to 100 (0 no effect, 100 complete control)
In short: (§2)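 Rating: visual, 0–100 (100 = complete control), versus untreated controls after 13 to 15 greenhouse days. Treatment went into paddy water held at 3 cm over the soil, on plants grown to two leaves.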

[3] = tested on: crabgrass, large (large crabgrass, Digitaria sanguinalis); test: Test A pre-/postemergence: crabgrass, large; conditions: for Crabgrass, Large plant response rating: Postemergence; for Plant response rating, Crabgrass, Large: Preemergence
In short: as §1

[4] = tested on: pigweed (Amaranthus retroflexus); test: Test A pre-/postemergence: pigweed; conditions: for Pigweed plant response rating: Postemergence; for Plant response rating, Pigweed: Preemergence
In short: as §1

[5] = tested on: velvetleaf (Abutilon theophrasti); test: Test A pre-/postemergence: velvetleaf; conditions: for Velvetleaf plant response rating: Postemergence; for Plant response rating, Velvetleaf: Preemergence
In short: as §1

[6] = tested on: barnyardgrass (Echinochloa crus-galli); test: Test C flooded paddy test: barnyardgrass; conditions: scale 0 to 100 (0 no effect, 100 complete control)
In short: as §2

[7] = tested on: foxtail, giant (giant foxtail, Setaria faberii); test: Test A pre-/postemergence: foxtail, giant; conditions: for Foxtail, Giant plant response rating: Postemergence; for Plant response rating, Foxtail, Giant: Preemergence
In short: as §1

[8] = tested on: wheat (Triticum aestivum); test: Test A pre-/postemergence: wheat; conditions: for Wheat plant response rating: Postemergence; for Plant response rating, Wheat: Preemergence
In short: as §1

corn (Zea mays) = test: Test A pre-/postemergence: corn; conditions: for Corn plant response rating: Postemergence; for Plant response rating, Corn: Preemergence
In short: as §1

rice (Oryza sativa) = test: Test C flooded paddy test: rice; conditions: scale 0 to 100 (0 no effect, 100 complete control)
In short: as §2

[9] = tested on: barnyardgrass (Echinochloa crus-galli); test: Test A pre-/postemergence: barnyardgrass; conditions: for Barnyardgrass plant response rating: Postemergence; for Plant response rating, Barnyardgrass: Preemergence
In short: as §1

[10] = tested on: sedge, umbrella (small-flower umbrella sedge, Cyperus difformis); test: Test C flooded paddy test: sedge, umbrella; conditions: scale 0 to 100 (0 no effect, 100 complete control)
In short: as §2

[11] = 125 g ai/ha, 0 to 100 scale, 0 is no effect, 100 is complete control
[12] = 500 g ai/ha, visual rating on 0 to 100 scale (0 no effect, 100 complete control), approximately ten days
[13] = 125 g ai/ha, 0 to 100 scale (0 no effect, 100 complete control)
[14] = 500 g ai/ha, 0 to 100 scale, 0 is no effect, 100 is complete control
[15] = Flood (flooded paddy test), 62 g ai/ha, visual rating after 13 to 15 days
[16] = Flood (flooded paddy test), 125 g ai/ha, visual rating after 13 to 15 days
[17] = Flood (flooded paddy test), 250 g ai/ha, visual rating after 13 to 15 days
[18] = 125 g ai/ha, 0 to 100 scale where 0 is no effect and 100 is complete control

Cc1nn(-c2ccc(C(F)(F)F)nc2)nc1C(=O)c1cccc(C(F)(F)F)c1 [Compound 73]
Morningglory plant response rating [1, 11]: 20 | Morningglory plant response rating [1, 12]: 70 | Plant response rating, Morningglory [1, 13]: 0 | Plant response rating, Morningglory [1, 14]: 10 | Plant response rating, Ducksalad [2, 15]: 0 | Plant response rating, Ducksalad [2, 16]: 0 | Plant response rating, Ducksalad [2, 17]: 85 | Plant response rating, Ducksalad ([2]; Flood, 31 g ai/ha): 0 | Crabgrass, Large plant response rating [3, 11]: 20 | Crabgrass, Large plant response rating [3, 12]: 60 | Plant response rating, Crabgrass, Large [3, 13]: 50 | Plant response rating, Crabgrass, Large [3, 14]: 90 | Pigweed plant response rating [4, 11]: 70 | Pigweed plant response rating [4, 12]: 100 | Plant response rating, Pigweed [4, 13]: 30 | Plant response rating, Pigweed [4, 14]: 100 | Velvetleaf plant response rating [5, 11]: 20 | Velvetleaf plant response rating [5, 12]: 40 | Plant response rating, Velvetleaf [5, 13]: 0 | Plant response rating, Velvetleaf [5, 14]: 10 | Plant response rating, Barnyardgrass [6, 15]: 0 | Plant response rating, Barnyardgrass [6, 16]: 0 | Plant response rating, Barnyardgrass [6, 17]: 0 | Plant response rating, Barnyardgrass ([6]; Flood, 31 g ai/ha): 0 | Foxtail, Giant plant response rating [7, 11]: 10 | Foxtail, Giant plant response rating [7, 12]: 40 | Plant response rating, Foxtail, Giant [7, 13]: 60 | Plant response rating, Foxtail, Giant [7, 14]: 90 | Wheat plant response rating [8, 11]: 10 | Wheat plant response rating [8, 12]: 20 | Plant response rating, Wheat [8, 13]: 0 | Plant response rating, Wheat [8, 14]: 10 | Corn plant response rating (corn (Zea mays); [11]): 10 | Corn plant response rating (corn (Zea mays); [12]): 20 | Plant response rating, Corn (corn (Zea mays); [13]): 0 | Plant response rating, Corn (corn (Zea mays); [14]): 0 | Plant response rating, Rice (rice (Oryza sativa); [15]): 0 | Plant response rating, Rice (rice (Oryza sativa); [16]): 0 | Plant response rating, Rice (rice (Oryza sativa); [17]): 0 | Plant response rating, Rice (rice (Oryza sativa); Flood, 31 g ai/ha): 0 | Barnyardgrass plant response rating [9, 11]: 10 | Barnyardgrass plant response rating [9, 12]: 30 | Plant response rating, Barnyardgrass [9, 13]: 0 | Plant response rating, Barnyardgrass [9, 14]: 40 | Plant response rating, Sedge, Umbrella [10, 15]: 0 | Plant response rating, Sedge, Umbrella [10, 16]: 0 | Plant response rating, Sedge, Umbrella [10, 17]: 0 | Plant response rating, Sedge, Umbrella ([10]; Flood, 31 g ai/ha): 0

Cc1nn(-c2ccc(I)cc2)nc1C(=O)c1cccc(C(F)(F)F)c1 [Compound 61]
Morningglory plant response rating [1, 11]: 10 | Morningglory plant response rating [1, 12]: 30 | Plant response rating, Morningglory [1, 13]: 0 | Plant response rating, Morningglory [1, 14]: 0 | Plant response rating, Ducksalad [2, 15]: 0 | Plant response rating, Ducksalad [2, 16]: 0 | Plant response rating, Ducksalad [2, 17]: 0 | Plant response rating, Ducksalad ([2]; Flood, 31 g ai/ha): 0 | Crabgrass, Large plant response rating [3, 11]: 0 | Crabgrass, Large plant response rating [3, 12]: 10 | Plant response rating, Crabgrass, Large [3, 13]: 0 | Plant response rating, Crabgrass, Large [3, 14]: 10 | Pigweed plant response rating [4, 11]: 40 | Pigweed plant response rating [4, 12]: 80 | Plant response rating, Pigweed [4, 13]: 0 | Plant response rating, Pigweed [4, 14]: 10 | Velvetleaf plant response rating [5, 11]: 10 | Velvetleaf plant response rating [5, 12]: 30 | Plant response rating, Velvetleaf [5, 13]: 0 | Plant response rating, Velvetleaf [5, 14]: 0 | Plant response rating, Barnyardgrass [6, 15]: 0 | Plant response rating, Barnyardgrass [6, 16]: 0 | Plant response rating, Barnyardgrass [6, 17]: 0 | Plant response rating, Barnyardgrass ([6]; Flood, 31 g ai/ha): 0 | Foxtail, Giant plant response rating [7, 11]: 0 | Foxtail, Giant plant response rating [7, 12]: 10 | Plant response rating, Foxtail, Giant [7, 13]: 0 | Plant response rating, Foxtail, Giant [7, 14]: 10 | Wheat plant response rating [8, 11]: 0 | Wheat plant response rating [8, 12]: 0 | Plant response rating, Wheat [8, 13]: 0 | Plant response rating, Wheat [8, 14]: 0 | Corn plant response rating (corn (Zea mays); [11]): 10 | Corn plant response rating (corn (Zea mays); [12]): 10 | Plant response rating, Corn (corn (Zea mays); [13]): 0 | Plant response rating, Corn (corn (Zea mays); [14]): 0 | Plant response rating, Rice (rice (Oryza sativa); [15]): 0 | Plant response rating, Rice (rice (Oryza sativa); [16]): 0 | Plant response rating, Rice (rice (Oryza sativa); [17]): 0 | Plant response rating, Rice (rice (Oryza sativa); Flood, 31 g ai/ha): 0 | Barnyardgrass plant response rating [9, 11]: 0 | Barnyardgrass plant response rating [9, 12]: 10 | Plant response rating, Barnyardgrass [9, 13]: 0 | Plant response rating, Barnyardgrass [9, 14]: 0 | Plant response rating, Sedge, Umbrella [10, 15]: 0 | Plant response rating, Sedge, Umbrella [10, 16]: 0 | Plant response rating, Sedge, Umbrella [10, 17]: 0 | Plant response rating, Sedge, Umbrella ([10]; Flood, 31 g ai/ha): 0

CSc1ccc(-n2nc(C)c(C(=O)c3cccc(C(F)(F)F)c3)n2)cc1 [Compound 93]
Morningglory plant response rating [1, 11]: 0 | Morningglory plant response rating [1, 12]: 10 | Plant response rating, Morningglory [1, 18]: 0 | Plant response rating, Morningglory [1, 14]: 0 | Plant response rating, Ducksalad [2, 16]: 0 | Plant response rating, Ducksalad [2, 17]: 0 | Plant response rating, Ducksalad ([2]; Flood, 31 g ai/ha): 0 | Plant response rating, Ducksalad ([2]; Flood, 62 g ai/ha): 0 | Crabgrass, Large plant response rating [3, 11]: 10 | Crabgrass, Large plant response rating [3, 12]: 20 | Plant response rating, Crabgrass, Large [3, 13]: 0 | Plant response rating, Crabgrass, Large [3, 14]: 0 | Pigweed plant response rating [4, 11]: 10 | Pigweed plant response rating [4, 12]: 20 | Plant response rating, Pigweed [4, 18]: 0 | Plant response rating, Pigweed [4, 14]: 0 | Velvetleaf plant response rating [5, 11]: 10 | Velvetleaf plant response rating [5, 12]: 20 | Plant response rating, Velvetleaf [5, 18]: 0 | Plant response rating, Velvetleaf [5, 14]: 0 | Plant response rating, Barnyardgrass [6, 16]: 0 | Plant response rating, Barnyardgrass [6, 17]: 0 | Plant response rating, Barnyardgrass ([6]; Flood, 31 g ai/ha): 0 | Plant response rating, Barnyardgrass ([6]; Flood, 62 g ai/ha): 0 | Foxtail, Giant plant response rating [7, 11]: 10 | Foxtail, Giant plant response rating [7, 12]: 10 | Plant response rating, Foxtail, Giant [7, 18]: 0 | Plant response rating, Foxtail, Giant [7, 14]: 0 | Wheat plant response rating [8, 11]: 0 | Wheat plant response rating [8, 12]: 0 | Plant response rating, Wheat [8, 18]: 0 | Plant response rating, Wheat [8, 14]: 0 | Corn plant response rating (corn (Zea mays); [11]): 10 | Corn plant response rating (corn (Zea mays); [12]): 10 | Plant response rating, Corn (corn (Zea mays); [13]): 0 | Plant response rating, Corn (corn (Zea mays); [14]): 0 | Plant response rating, Rice (rice (Oryza sativa); [16]): 0 | Plant response rating, Rice (rice (Oryza sativa); [17]): 0 | Plant response rating, Rice (rice (Oryza sativa); Flood, 31 g ai/ha): 0 | Plant response rating, Rice (rice (Oryza sativa); Flood, 62 g ai/ha): 0 | Barnyardgrass plant response rating [9, 11]: 0 | Barnyardgrass plant response rating [9, 12]: 10 | Plant response rating, Barnyardgrass [9, 13]: 0 | Plant response rating, Barnyardgrass [9, 14]: 0 | Plant response rating, Sedge, Umbrella [10, 16]: 0 | Plant response rating, Sedge, Umbrella [10, 17]: 0 | Plant response rating, Sedge, Umbrella ([10]; Flood, 31 g ai/ha): 0 | Plant response rating, Sedge, Umbrella ([10]; Flood, 62 g ai/ha): 0
